PubChem BioAssay AID2488 (The Scripps Research Institute Molecular Screening Center, 2010)
Calls of active or inactive are those of the source.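 The calls were made as follows: active = IC50 at or below 10 µM; inactive = IC50 above 10 µM.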

What follows are compounds tested against HCV core protein (core106) dimerization, Hepatitis C virus (assay: core106 dimer disruption concentration response – biochemical, TR-FRET, dose response, powder samples, late-stage follow-up (AID 2488)). Settings: GST/Flag-core106 dimerization, TR-FRET HTRF.
For `O=C(/C=C/c1ccc(Br)o1)OCc1nc2ccsc2c(=O)[nH]1`, the IC50 was > 49.8 µM (inactive). `CC1=C(/C=C/C(C)=C/C=C/C(C)=C/C=C/C=C(C)/C=C/C=C(C)/C=C/C2=C(C)CCCC2(C)C)C(C)(C)CCC1` was tested, and the IC50 was > 49.8 µM (inactive). With `COc1ccc(NC(=O)CN(C)C(=O)c2cc3c(s2)CCC3)cc1` the IC50 was “inactive”. With `Cc1ccc(Cc2c(C)nc3nc(SCC(=O)NCCCN4CCCCCC4)nn3c2C)cc1` the IC50 was 3.67 µM. For `CCN(CC(=O)Nc1c(F)cccc1F)C(=O)/C=C/c1ccc2ccccc2n1`, the IC50 was “inactive”. `CCCCCC#CCC#CCC#CCC#CCCCC(=O)O` was tested, and the IC50 was > 49.8 µM (inactive). With `COCCN(C(=O)COC(=O)c1cc2c(s1)CCC2)c1c(N)n(Cc2ccccc2)c(=O)[nH]c1=O` the IC50 was “inactive”. In the case of `Cc1ccccc1N1C(=O)/C(=C/c2ccco2)C(=O)NC1=S`, the IC50 is reported as “inactive”.
